Where two headings read alike, the source gives them in different places.
Experiments:
[1] = tested on: influenza strain A/VN/1203/2004 (H5N1); experiment: microbe, parasite or virus in culture; assay type: cell-based, Influenza A virus (H5N1)
[2] = tested on: Madin Darby Canine Kidney (MDCK) cells; experiment: cells; assay type: cell-based; details: Canis lupus familiaris, MDCK, read-out: IC50 (toxicity)
[3] = tested on: Influenza virus strain A/CA/04/2009 (H1N1); experiment: organism not typed; assay type: cell-based; details: MDCK, 72 h, read-out: H1N1 EC50 (@ 50% Via)
[4] = Influenza A virus, H5N1, MDCK, 72 h, read-out: H5N1 EC50 (@ 50% Via)
[5] = Influenza A virus, H5N1, MDCK, 72 h, read-out: H5N1 EC50 (Inf Pt)
[6] = read-out: H5N1 EC50 (@ 50% Via)

SMILES	EC50 [1, 4] [µM]	IC50 [2] [µM]	EC50 [3] [µM]	EC50 [1, 5] [µM]	EC50 ([1]; read-out: H5N1 EC50 (Inf Pt)) [µM]	EC50 [1, 6] [µM]
COc1ccc(C2NC(=O)NC3=C2CCc2ncccc23)cc1Br (stereo not drawn) [compound 23102]	14.5	> 40	> 40			
COc1ccc(C2NC(=O)NC3=C2CCc2c(C)cc(C)cc23)cc1Br (stereo not drawn) [compound 22526]	> 48	6.9	> 50	> 48		
COc1ccc(C2NC(=O)NC3=C2CCc2ccccc23)cc1C (stereo not drawn) [compound 22516]		> 50	10			
CCC(=O)N1CC2=C(NC(=O)NC2c2ccc(OC)c(Br)c2)c2ccccc21 (stereo not drawn) [compound 23205]	0.193	> 40	10.1	0.189		
O=C1NC2=C(CCc3ccccc32)C(c2ccc(F)c(Br)c2)N1 (stereo not drawn) [compound 22409]		> 50	1.4			
COc1cc(C2NC(=O)NC3=C2CCc2ccccc23)ccc1F (stereo not drawn) [compound 22517]	9.6	> 50	> 50	7.2		
O=C1NC2=C(CCc3ccccc32)C(c2cccc([N+](=O)[O-])c2)N1 (stereo not drawn) [compound 22347]	5.5	> 50	> 50	4.2		
COc1ccc(C2NC(=O)NC3=C2COc2ccccc23)cc1C (stereo not drawn) [compound 23210]	0.332	> 40	3.1	0.307		
CCOc1cccc(C2NC(=O)NC3=C2CCc2ccccc23)c1 (stereo not drawn) [compound 22520]		> 50	> 50	7.1		
Cc1cc(C2NC(=O)NC3=C2CCc2ccccc23)ccc1O (stereo not drawn) [compound 22706]		> 50	4.8			
COC(=O)N1CC2=C(NC(=O)NC2c2ccc(OC)c(Br)c2)c2ccccc21 (stereo not drawn) [compound 25408]	0.208	> 40	9.7	0.201		
COc1cccc2c1CCC1=C2NC(=O)NC1c1ccc(C)c(C)c1 (stereo not drawn) [compound 22113]		> 50	16.8	2.4	4.4	
COc1cccc2c1CCC1=C2NC(=O)NC1c1ccc(C)cc1 (stereo not drawn) [compound 22123]	18.3	> 50	> 50	10.9		
O=C1NC2=C(CCc3ccccc32)C(c2ccc(Cl)cc2Cl)N1 (stereo not drawn) [compound 22406]	> 50	> 50	> 50	> 50		
COc1ccc(C2NC(=O)NC3=C2CN(C(=O)c2ccco2)c2ccccc23)cc1Br (stereo not drawn) [compound 23209]	> 40	> 40	> 40	> 40		
COc1ccc(C2NC(=O)NC3=C2CCCc2ccccc23)cc1Br (stereo not drawn) [compound 23096]	0.242	> 40	0.153	0.28		
COc1ccc(C2NC(=O)NC3=C2CN(C(=O)CNC2CC2)c2ccccc23)cc1Br (stereo not drawn) [compound 24718]	9.7	> 40	8	9.7		
COc1c(Br)cc(C2NC(=O)NC3=C2CCc2ccccc23)cc1Br (stereo not drawn) [compound 22703]	38	> 40	> 40	> 40		
O=C1NC2=C(CCc3ccccc32)C(c2ccc(O)c(Br)c2)N1 (stereo not drawn) [compound 22709]		> 53	0.118			
COc1ccc(C2NC(=O)NC3=C2CN(C(=O)CNC(C)=O)c2ccccc23)cc1Br (stereo not drawn) [compound 25350]	0.045	> 40	0.622	0.044		
O=C1NC2=C(C(c3ccc4c(c3)OCO4)N1)C(c1ccccc1)Oc1ccccc12 (stereo not drawn) [compound 22421]	> 50	> 50	> 50	> 50		
COc1ccc(C2NC(=O)NC3=C2CN(C(=O)CSCC(O)CO)c2ccccc23)cc1Br (stereo not drawn) [compound 25412]	0.893	> 40	3.1	0.848		
Cc1ccc(C2NC(=O)NC3=C2CCCc2ccccc23)cc1 (stereo not drawn) [compound 22083]	28	> 50	9.5			
COc1ccc(C2NC(=O)NC3=C2CN(C(=O)CNC(=O)CO)c2ccccc23)cc1Br (stereo not drawn) [compound 25414]	0.277	> 40	> 40	0.275		
COc1ccc(C2NC(O)NC3=C2CN(C(=O)CO)c2ccccc23)cc1Br (stereo not drawn) [compound 23275]	0.0027	> 40	< 0.067	0.0027		
COc1ccc(C2NC(=O)NC3=C2CN(C(=O)CSCCN(C)C)c2ccccc23)cc1Br (stereo not drawn) [compound 25410]	0.714		15.6	0.669		
COc1ccc(C2NC(=O)NC3=C2CN(C(=O)c2ccc4c(c2)OCO4)c2ccccc23)cc1Br (stereo not drawn) [compound 23274]	> 40	> 40	> 40	> 40		

SMILES	EC50 [1, 4] [µM]	IC50 [2] [µM]	EC50 [3] [µM]	EC50 [1, 5] [µM]	EC50 ([1]; read-out: H5N1 EC50 (Inf Pt)) [µM]	EC50 [1, 6] [µM]
COc1ccc(C2NC(=O)NC3=C2CSc2ccccc23)cc1Br (stereo not drawn) [compound 22412]		> 50	0.351			
COc1ccc2c(c1)C1=C(CC2)C(c2ccc(C)cc2)NC(=O)N1 (stereo not drawn) [compound 22087]	> 50	> 50	47			
Cc1ccc(C2NC(=O)NC3=C2COc2ccccc23)cc1C (stereo not drawn) [compound 22105]	1.8	> 50	14.9	1	1.9	2.7
COc1ccc(C2NC(=O)NC3=C2CCc2ccccc23)cc1OC (stereo not drawn) [compound 22524]	7.4	> 50	39	7		
COc1ccc(C2NC(=O)NC3=C2COc2ccccc23)cc1Br (stereo not drawn) [compound 22521]		> 50	4			
O=C1NC2=C(CCc3ccccc32)C(c2ccc3c(c2)OCO3)N1 (stereo not drawn) [compound 22121]	0.39	29.6	> 50	0.34	0.22	
Cc1cccc(C2NC(=O)NC3=C2COc2ccccc23)c1 (stereo not drawn) [compound 22109]		> 50	> 50			
COc1ccc(C2NC(=O)NC3=C2CN(C(=O)COC(C)=O)c2ccccc23)cc1Br (stereo not drawn) [compound 23206]	0.022	> 40	0.0257	0.022	0.0112	0.0119
COc1ccc(C2NC(=O)NC3=C2CCc2ccccc23)cc1Br (stereo not drawn) [compound 22405]		> 50	0.425			
CCOc1ccc(C2NC(=O)NC3=C2CCc2ccccc23)cc1C (stereo not drawn) [compound 22711]	1.3	> 50	37	1.2		
O=C1NC2=C(COc3ccccc32)C(c2ccc(Cl)c(Cl)c2)N1 (stereo not drawn) [compound 22404]	1.6	> 50	> 50			0.94
O=C1NC2=C(CCc3ccccc32)C(c2ccc([N+](=O)[O-])cc2)N1 (stereo not drawn) [compound 22349]	1.17	> 50	17.7	0.95		
COc1ccc(C2NC(=O)NC3=C2CN(C(=O)CN(C)C)c2ccccc23)cc1Br (stereo not drawn) [compound 25012]	< 0.33	> 40	3	0.2		
COc1ccc(C2NC(=O)NC3=C2CN(C(=O)CNCCO)c2ccccc23)cc1Br (stereo not drawn) [compound 24717]	2.1	> 40	5.6	2.1		
COc1ccc(C2NC(=O)NC3=C2CCc2ccccc23)cc1F (stereo not drawn) [compound 22522]	0.26	> 50	3.8	0.19		
O=C1NC2=C(CCc3ccccc32)C(c2ccc(C(F)(F)F)cc2)N1 (stereo not drawn) [compound 22119]	32.9	> 50	11.7	14.8		
COc1ccc(C2NC(=O)NC3=C2CN(C(C)=O)c2ccccc23)cc1Br (stereo not drawn) [compound 23099]		> 40	0.0062			
CCOc1c(Br)cc(C2NC(=O)NC3=C2CCc2ccccc23)cc1Br (stereo not drawn) [compound 22704]	> 40	> 40	> 40	> 40		
COc1ccc(C2NC(=O)NC3=C2CN(C(=O)CSCCO)c2ccccc23)cc1Br (stereo not drawn) [compound 25413]	4.4	> 40	3.8	4.5		
COc1ccc(C2NC(=O)NC3=C2CN(C(=O)CN2CCC2)c2ccccc23)cc1Br (stereo not drawn) [compound 25411]	0.814	> 40	3.7	0.755		
O=C1NC2=C(COc3ccccc32)C(c2ccc(O)c(Br)c2)N1 (stereo not drawn) [compound 22701]	0.0262	> 20	1.6	0.021	0.027	0.027
COc1ccc(C2NC(=O)NC3=C2CN(C(=O)CN2CCOCC2)c2ccccc23)cc1Br (stereo not drawn) [compound 23272]	9.1	> 40	3.5	8.7		
CC(=O)Oc1ccc(C2NC(=O)NC3=C2COc2ccccc23)cc1Br (stereo not drawn) [compound 23097]	0.0928	> 40	1	0.102		
COc1ccc(C2NC(=O)NC3=C2CC(C)c2ccccc23)cc1Br (stereo not drawn) [compound 22700]		> 48	0.0985			
COc1ccc(C2NC(=O)NC3=C2CN(C(=O)CN)c2ccccc23)cc1Br (stereo not drawn) [compound 24716]	3.1	> 40		3.1		
Cc1cccc(-c2nc(O)nc3c2COc2ccccc2-3)c1 [compound 22110]	10.4	> 50		8.6		
